Test results published in patent publication US20080004282A1, “Compositions and methods for modulating gated ion channels” (PainCeptor Pharma Corporation, priority 2006, published 2008).

Target: T1, ASIC1a (Homo sapiens, UniProt P78348)
T1 sequence (P78348 1-528): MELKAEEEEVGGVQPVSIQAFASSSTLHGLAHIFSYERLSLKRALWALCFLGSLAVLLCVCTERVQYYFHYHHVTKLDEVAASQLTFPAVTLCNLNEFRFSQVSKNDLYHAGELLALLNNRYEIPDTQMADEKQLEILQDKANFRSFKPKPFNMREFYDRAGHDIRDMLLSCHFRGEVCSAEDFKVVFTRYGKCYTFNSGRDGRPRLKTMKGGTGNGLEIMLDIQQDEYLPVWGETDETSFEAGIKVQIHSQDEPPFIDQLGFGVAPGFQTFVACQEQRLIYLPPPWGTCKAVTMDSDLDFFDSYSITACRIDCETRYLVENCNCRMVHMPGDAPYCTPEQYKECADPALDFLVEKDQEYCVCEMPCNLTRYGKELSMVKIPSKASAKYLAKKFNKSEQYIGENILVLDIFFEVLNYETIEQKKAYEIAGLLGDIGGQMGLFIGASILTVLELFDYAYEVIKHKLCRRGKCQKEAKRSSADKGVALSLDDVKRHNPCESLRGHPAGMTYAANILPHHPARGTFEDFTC
Experiment: Two-electrode voltage clamp of acid-induced currents in Xenopus laevis oocytes
Assay type: cell-based
Design: expressed in transfected cells; host or cells: Xenopus laevis oocytes, nuclear microinjection of an expression vector such as pCDNA3
Conditions: 50 μM, Xenopus oocytes; read-out: % inh. at 50 μM (Xo)
Protocol: Screening and Bioanalysis of ASIC Antagonists in Xenopus laevis oocytes
This example describes the in vitro assessment of the activity of the compounds of the present invention.
Two-electrode voltage clamp electrophysiological assays in Xenopus laevis oocytes expressing gated ion channels are performed as follows:
Oocytes are surgically removed from adult Xenopus laevis and treated for 2 h at room temperature with 1 mg/ml type I collagenase (Sigma) in Barth's solution under mild agitation. Selected oocytes at stage IV-V are defolliculated manually before nuclear microinjection of 2.5-5 ng of a suitable expression vector, such as pCDNA3, comprising the nucleotide sequence encoding a gated ion channel subunit protein. In such an experiment, the oocytes express homomultimeric proton-gated ion channels on their surface. In an alternate experiment, one, two, three or more vectors comprising the coding sequences for distinct gated ion channel subunits are co-injected in the oocyte nuclei. In the latter case, oocytes express heteromultimeric proton-gated ion channels. For example, ASIC2a and/or ASIC3 subunits in pcDNA3 vector are co-injected at a 1:1 cDNA ratio. After 2-4 days of expression at 19° C. in Barth's solution containing […] gentamicin and 1.8 mM CaCl2, gated ion channels are activated by applying an acidic solution (pH<7) and currents are recorded in a two electrode voltage-clamp configuration, using an OC-725B amplifier (Warner Instruments). Currents are acquired and digitized at 500 Hz on an Apple Imac G3 computer with an A/D NB-MIO-16XL interface (National Instruments) and recorded traces are post-filtered at 100 Hz in Axograph (Axon Instruments) (Neher, E. and Sakmann, B. (1976) Nature 260:799-802). Once impaled with the microelectrodes, oocytes are continuously superfused at 10-12 ml/min with a modified Ringer's solution containing 97 mM NaCl, 2 mM KCl, 1.8 mM CaCl2, and 10 mM HEPES brought to pH 7.4 with NaOH (Control Ringer). Test Ringer solution is prepared by replacing HEPES with MES and adjusting the pH to the desired acidic value. Compounds of the present invention are prepared in both the Control and Test Ringer solutions and applied to oocytes at room temperature through a computer-controlled switching valve system. Osmolarity of all solutions is adjusted to 235 mOsm with choline chloride. Similarly, recordings can also be acquired in an automated multichannel oocytes system as the OpusExpress™ (Molecular Devices, Sunnyvale, USA).
FIGS. 1A and 2A illustrate the inhibitory effects of Compounds 12 and 44 on acid-induced activation of recombinant homomeric hASIC1a channels. FIGS. 1A and 2A show the dose-dependent inhibition of the acid-induced hASIC1a currents recorded from Xenopus laevis oocytes using the two-electrode voltage clamp method (as described in this example) in the absence or presence of increasing concentration of the compounds.

SMILES | inhibition at 50 µM
CCN1CCc2c(-c3cc(F)ccc3OC)ccc(NCC(=O)OC)c2C1 [Compound 2, [2-Ethyl-5-(5-fluoro-2-methoxy-phenyl)-1,2,3,4-tetrahydro-isoquinolin-8-ylamino]-acetic acid methyl ester] | < 20%
COc1ccc(F)cc1-c1cc(-c2noc(=O)[nH]2)c(N)c2c1CCN(C)C2 [Compound 5, 3-[8-Amino-5-(5-fluoro-2-methoxy-phenyl)-2-methyl-1,2,3,4-tetrahydro-isoquinolin-7-yl]-4H-[1,2,4]oxadiazol-5-one] | < 20%
CCN1CCc2c(-c3ccccc3)cc(C#N)c(NC(C)=O)c2C1 [Compound 8, N-(7-Cyano-2-ethyl-5-phenyl-1,2,3,4-tetrahydro-isoquinolin-8-yl)-acetamide] | 20 to 30%
CCN1CCc2c(-c3ccccc3)cc(C#N)c(NS(C)(=O)=O)c2C1 [Compound 9, N-(7-Cyano-2-ethyl-5-phenyl-1,2,3,4-tetrahydro-isoquinolin-8-yl)-methanesulfonamide] | 15 to 25%
CCN1CCc2c(-c3ccccc3)cc(C#N)c(NC(=O)CC(=O)OC)c2C1 [Compound 14, N-(7-Cyano-2-ethyl-5-phenyl-1,2,3,4-tetrahydro-isoquinolin-8-yl)-malonamic acid methyl ester] | 20 to 30%
CCN1CCc2c(-c3cc(F)ccc3OC)ccc(N3C(=O)CNC3=O)c2C1 [Compound 22] | < 20%
CCN1CCc2c(-c3cc(F)ccc3OC)ccc(NC(N)=O)c2C1 [Compound 23] | 20 to 30%
CCOC(=O)CNC(=O)Nc1ccc(-c2cc(F)ccc2OC)c2c1CN(CC)CC2 [Compound 24] | 20 to 30%
CCN1CCc2c(-c3cc(F)ccc3OC)ccc(N3CC(=O)NC3=O)c2C1 [Compound 25] | > 40%
CCN1CCc2c(-c3cc(F)ccc3OC)ccc(NC(=O)NC(=O)N3C(=O)CN(c4ccc(-c5cc(F)ccc5OC)c5c4CN(CC)CC5)C3=O)c2C1 [Compound 26] | > 30%
CCN1CCc2c(-c3cc(F)ccc3OC)ccc(NC=O)c2C1 [Compound 27] | < 20%
CCN1CCc2c(cc(N3C(=O)CNC3=O)cc2-c2cc(F)ccc2OC)C1 [Compound 28] | 20 to 30%
CC(=O)N1CCc2c(-c3ccccc3)cc(C#N)c(N)c2C1 [Compound 29] | 20 to 30%
N#Cc1cc(-c2ccccc2)c2ccncc2c1N [Compound 30] | 20 to 30%
Cc1cc2c(N)c(C#N)cc(-c3ccccc3)c2cn1 [Compound 31] | > 30%
Cc1cc2c(N)c(-c3ccccc3)cc(C#N)c2cn1 [Compound 32] | > 30%
CCN1CCc2c(-c3ccccc3)cc(/C(N)=N/O)c(N)c2C1 [Compound 33] | > 30%
CCN1CCc2c(-c3cc(F)ccc3OC)ccc(NC)c2C1 [Compound 34] | > 40%
CCN1CCc2c(-c3ccccc3)ccc(N)c2C1 [Compound 35] | 20 to 30%
CCN1CCc2c(-c3ccccc3)cc(-c3ccccn3)c(N)c2C1 [Compound 36] | < 20%
CCN1CCc2c(-c3ccccc3)cc(-c3cnccn3)c(N)c2C1 [Compound 37] | > 30%

SMILES | inhibition at 50 µM
CCN1CCc2c(-c3ccccc3)cc(-c3cnn(C)c3N)c(N)c2C1 [Compound 38] | > 30%
CCN1CCc2c(-c3ccccc3)cc(-c3ccc(C)nn3)c(N)c2C1 [Compound 39] | 20 to 30%
CCN1CCc2c(-c3ccccc3)cc(-c3cccc(C)n3)c(N)c2C1 [Compound 40] | > 30%
CCN1CCc2c(cc(C#N)cc2-c2ccccc2)C1 [Compound 41] | > 30%
CCN1CCc2c(-c3ccccc3)cc(C#N)c(O)c2C1 [Compound 42] | 20 to 30%
CCN1CCc2c(-c3ccccc3)cc(Br)c(N)c2C1 [Compound 46] | > 40%
CCN1CCc2c(-c3cc(C)ccc3C)cc(C#N)c(N)c2C1 [Compound 47] | > 40%
CCN1CCc2c(-c3ccccc3)cc(Br)c(N(C)C)c2C1 [Compound 49] | 20 to 30%
CCN1CCc2c(-c3ccccc3)cc(C#N)c([N+](=O)[O-])c2C1 [Compound 51] | 20 to 30%
CCN1CCc2c(-c3ccccc3)cc(C#N)c(Cl)c2C1 [Compound 52] | 25 to 35%
CCN1CCc2c(-c3ccccc3)cc(C#N)c(N3CCCC3)c2C1 [Compound 53] | > 40%
CCN1CCc2c(-c3cccnc3)cc(C#N)c(N)c2C1 [Compound 54] | > 50%
CCN1CCc2c(-c3ccncc3)cc(C#N)c(N)c2C1 [Compound 55] | < 20%
CCN1CCc2c(-c3ccccc3)cc(C#N)c(N(S(C)(=O)=O)S(C)(=O)=O)c2C1 [Compound 56] | < 20%
CCN1CCc2c(-c3ccccc3)cc(C#N)c(NC(=O)C(=O)OC)c2C1 [Compound 57] | < 20%
CCN1CCc2c(-c3ccccc3)cc(C#N)c(N3C(=O)CCC3=O)c2C1 [Compound 58] | 20 to 30%
CCN1CCc2c(-c3ccccc3)cc(C#N)c(-n3cccc3)c2C1 [Compound 59] | > 50%
CCN1CCc2c(-c3ccccc3)cc(C#N)c(-c3cccnc3)c2C1 [Compound 60] | 45 to 55%
CCN1CCc2c(-c3ccccc3)cc(C#N)c(Br)c2C1 [Compound 61] | > 30%
CCN1CCc2c(-c3ccccc3)cc(C#N)c(-c3cnn(C)c3)c2C1 [Compound 62] | > 30%
